Patent publication US5068247A, “2-aminopentanoic acid compounds and their use as immunosuppressants” (priority 1989, dated 1991)
Read-outs that look alike come from different tables or passages of the source.

Key:
Type in all cases: cell-based
[1] = tested on: human allogenic MLR (human peripheral blood lymphocytes); experiment: human allogenic MLR-suppressive activity, 3H-thymidine uptake; conditions: for suppressive activity in human allogenic MLR (in words): 1 to 0.0001 μg/ml
Experimental: The human allogenic MLR-suppressive activity was assayed as follows:
Human peripheral blood lymphocytes obtained by Ficoll-Paque density gradient centrifugation of normal human peripheral blood were suspended in the RPMI1640 culture medium supplemented with 10% FCS, placed in a plastic dish, and cultured in an atmosphere of 5% carbon dioxide and 95% air at 37° C. for 2 hours. After termination of culture, the supernatant after gentle pipetting was collected and centrifuged (1000 rpm, for 5 minutes) to obtain plastic-nonadherent cells. The plastic-nonadherent cells were allowed to pass through a nylon-wool column to give nylon-nonadherent cells, and the concentration of the cell suspension was adjusted to 4×10^6 cells/ml by using the RPMI1640 culture medium supplemented with 10% FCS, and used as the responder cell suspension.
The plastic-adherent cells were removed from the plastic dish by vigorous pipetting after addition of phosphate buffered saline (PBS) supplemented with 5% FCS and 0.02% disodium ethylenediaminetetraacetic acid (EDTA). The plastic-adherent cells were treated with 40 μg/ml of mitomycin C at 37° C. for 60 minutes, washed three times, and suspended to the concentration of 4×10^6 cells/ml in the RPMI1640 culture medium supplemented with 10% FCS. The resultant suspension was used as the stimulator cell suspension.
After termination of culture, 37 KBq/well of ^3 H-thymidine was added, and after 18 hours of culture, the cells were harvested by a cell-harvester. The radioactivity incorporated into the cells was measured by a liquid scintillation counter, which was used as an index of blastogenic response of lymphocytes in human allogenic MLR. The suppression of human allogenic MLR was evaluated by calculating the percent suppression by the following formula. [formula]

[2] = tested on: IL-3 production in PHA-stimulated mouse spleen cells; experiment: suppression of IL-3 production in PHA-stimulated mouse spleen cells; conditions: for inhibition at 0.001 µg/mL / inhibition at 0.01 µg/mL / inhibition at 0.1 µg/mL / inhibition at 1 µg/mL: Mus musculus, 24 h, read-out: Suppression
Experimental: (§1) The suppression of IL-2 and IL-3 production in the mitogen-stimulated mouse spleen cells was examined as follows:
(§2) The spleen was resected from 5- to 8-week-old male C3H/HeN mice, and a single cell suspension of spleen cells was prepared by using the RPMI1640 culture medium. After hemolytic treatment, the concentration of the suspension was adjusted to 10^7 cells/ml by using the RPMI1640 culture medium supplemented with 20% FCS, to which 10 μg/ml of phytohemagglutinin (PHA) was added as mitogen. […] After termination of culture, the supernatant was collected and used as the culture supernatant of PHA-stimulated mouse spleen cells.
The IL-3 activity was assayed as follows:
(§3) IL-3-dependent mouse cell line FDC-P2 cells were suspended in the RPMI1640 culture medium supplemented with 10% FCS to the concentration of 2×10^5 cells/ml. One hundred μl of the cell suspension and 100 μl of the two-fold serial dilution of the culture supernatant of PHA-stimulated mouse spleen cells described above were added to a 96-well flat-bottomed microtest plate. […] The IL-3 activity is expressed in U/ml as the dilution at which the absorbancy measured by MTT method was 50% of the maximum.

CTLL-2 cells = experiment: suppression of proliferation of IL-2-dependent mouse cell line CTLL-2 induced by IL-2; conditions: IL-2 50 U/ml
Experimental: IL-2-dependent mouse cell line CTLL-2 cells were suspended in the RPMI1640 culture medium supplemented with 30% FCS to the concentration of 4×10^5 cells/ml. Fifty μl of the cell suspension, 50 μl of 200 U/ml recombinant human IL-2 (rhIL-2) and 100 μl of the test substance were added to a 96-well flat-bottomed microtest plate. […] The percent suppression (%) was calculated by the following formula. [formula]

[3] = tested on: IL-2 production in PHA-stimulated mouse spleen cells; experiment: suppression of IL-2 production in PHA-stimulated mouse spleen cells; conditions: for inhibition at 0.001 µg/mL / inhibition at 0.01 µg/mL / inhibition at 0.1 µg/mL / inhibition at 1 µg/mL: Mus musculus, 24 h, read-out: Suppression
Experimental: as §1, §2
The IL-2 activity in the culture supernatant of PHA-stimulated mouse spleen cells was assayed as follows:
as §3, with “IL-2 dependent” for “IL-3-dependent”, “CTLL-2” for “FDC-P2”, “30%” for “10%”, “cells” for “cells described above”, “IL-2” for “IL-3”

[4] = Homo sapiens, Lymphocyte, 0.0001 μg/ml, Donor A/Donor B, read-out: Suppression
[5] = Homo sapiens, Lymphocyte, 0.0001 μg/ml, Donor C/Donor D, read-out: Suppression
[6] = Homo sapiens, Lymphocyte, 0.001 μg/ml, Donor A/Donor B, read-out: Suppression
[7] = Homo sapiens, Lymphocyte, 0.001 μg/ml, Donor C/Donor D, read-out: Suppression
[8] = Homo sapiens, Lymphocyte, 0.01 μg/ml, Donor A/Donor B, read-out: Suppression
[9] = Homo sapiens, Lymphocyte, 0.01 μg/ml, Donor C/Donor D, read-out: Suppression
[10] = Homo sapiens, Lymphocyte, 0.1 μg/ml, Donor A/Donor B, read-out: Suppression
[11] = Homo sapiens, Lymphocyte, 0.1 μg/ml, Donor C/Donor D, read-out: Suppression
[12] = Homo sapiens, Lymphocyte, 1 μg/ml, Donor A/Donor B, read-out: Suppression
[13] = Homo sapiens, Lymphocyte, 1 μg/ml, Donor C/Donor D, read-out: Suppression

CCCCCCC1(CCCCCC/C=C/C[C@@H](O)[C@H](O)[C@@](N)(CO)C(=O)O)SCCS1 [Example 3]
3H-thymidine uptake ([1]; 0.0001 μg/ml, Donor A/Donor B): 10700 cpm
3H-thymidine uptake ([1]; 0.0001 μg/ml, Donor C/Donor D): 18512 cpm
3H-thymidine uptake ([1]; 0.001 μg/ml, Donor A/Donor B): 7285 cpm
3H-thymidine uptake ([1]; 0.001 μg/ml, Donor C/Donor D): 17138 cpm
3H-thymidine uptake ([1]; 0.01 μg/ml, Donor A/Donor B): 7790 cpm
3H-thymidine uptake ([1]; 0.01 μg/ml, Donor C/Donor D): 15337 cpm
3H-thymidine uptake ([1]; 0.1 μg/ml, Donor A/Donor B): 6582 cpm
3H-thymidine uptake ([1]; 0.1 μg/ml, Donor C/Donor D): 8187 cpm
3H-thymidine uptake ([1]; 1 μg/ml, Donor A/Donor B): 5909 cpm
3H-thymidine uptake ([1]; 1 μg/ml, Donor C/Donor D): 5143 cpm
suppressive activity in human allogenic MLR (in words) [1]: exhibited suppressive activity in human allogenic MLR in a concentration-dependent manner
inhibition at 0.0001 µg/mL [1, 4]: 10.7%
inhibition at 0.0001 µg/mL [1, 5]: 7.9%
inhibition at 0.001 µg/mL [1, 6]: 41.3%
inhibition at 0.001 µg/mL [1, 7]: 14.9%
inhibition at 0.01 µg/mL [1, 8]: 36.8%
inhibition at 0.01 µg/mL [1, 9]: 24.1%
inhibition at 0.1 µg/mL [1, 10]: 47.6%
inhibition at 0.1 µg/mL [1, 11]: 60.5%
inhibition at 1 µg/mL [1, 12]: 53.7%
inhibition at 1 µg/mL [1, 13]: 76%
IL-3 activity ([2]; 0.001 μg/ml): 42.2 U/ml
IL-3 activity ([2]; 0.01 μg/ml): 45.3 U/ml
IL-3 activity ([2]; 0.1 μg/ml): 42.2 U/ml
IL-3 activity ([2]; 1 μg/ml): 27.9 U/ml
inhibition at 0.001 µg/mL ([2]; 0.001 μg/ml): 0%
inhibition at 0.01 µg/mL ([2]; 0.01 μg/ml): 0%
inhibition at 0.1 µg/mL ([2]; 0.1 μg/ml): 0%
inhibition at 1 µg/mL ([2]; 1 μg/ml): 24.2%
optical density (OD570) (CTLL-2 cells; 0.001 μg/ml, Table 6A): 0.551
optical density (OD570) (CTLL-2 cells; 0.01 μg/ml, Table 6A): 0.449
optical density (OD570) (CTLL-2 cells; 0.1 μg/ml, Table 6A): 0.471
optical density (OD570) (CTLL-2 cells; 1 μg/ml, Table 6A): 0.152
inhibition at 0.001 µg/mL (CTLL-2 cells; Mus musculus, CTLL-2, 68 h, 0.001 μg/ml, Table 6A, read-out: Suppression): 6%
inhibition at 0.01 µg/mL (CTLL-2 cells; Mus musculus, CTLL-2, 68 h, 0.01 μg/ml, Table 6A, read-out: Suppression): 23.4%
inhibition at 0.1 µg/mL (CTLL-2 cells; Mus musculus, CTLL-2, 68 h, 0.1 μg/ml, Table 6A, read-out: Suppression): 19.7%
inhibition at 1 µg/mL (CTLL-2 cells; Mus musculus, CTLL-2, 68 h, 1 μg/ml, Table 6A, read-out: Suppression): 74.2%
IL-2 activity ([3]; 0.001 μg/ml): 14.9 U/ml
IL-2 activity ([3]; 0.01 μg/ml): 13.9 U/ml
IL-2 activity ([3]; 0.1 μg/ml): 12.6 U/ml
IL-2 activity ([3]; 1 μg/ml): 8.6 U/ml
inhibition at 0.001 µg/mL ([3]; 0.001 μg/ml): 0%
inhibition at 0.01 µg/mL ([3]; 0.01 μg/ml): 0%
inhibition at 0.1 µg/mL ([3]; 0.1 μg/ml): 0%
inhibition at 1 µg/mL ([3]; 1 μg/ml): 28.9%

CCCCCCCCCCCCC/C=C/C[C@@H](O)[C@H](O)[C@@](N)(CO)C(=O)O [Example 5]
3H-thymidine uptake ([1]; 0.00001 μg/ml, Donor A/Donor B): 14723 cpm
3H-thymidine uptake ([1]; 0.0001 μg/ml, Donor A/Donor B): 8052 cpm
3H-thymidine uptake ([1]; 0.0001 μg/ml, Donor C/Donor D): 15723 cpm
3H-thymidine uptake ([1]; 0.001 μg/ml, Donor A/Donor B): 5363 cpm
3H-thymidine uptake ([1]; 0.001 μg/ml, Donor C/Donor D): 7145 cpm
3H-thymidine uptake ([1]; 0.01 μg/ml, Donor A/Donor B): 5042 cpm
3H-thymidine uptake ([1]; 0.01 μg/ml, Donor C/Donor D): 5878 cpm
3H-thymidine uptake ([1]; 0.1 μg/ml, Donor A/Donor B): 4660 cpm
3H-thymidine uptake ([1]; 0.1 μg/ml, Donor C/Donor D): 4703 cpm
3H-thymidine uptake ([1]; 1 μg/ml, Donor A/Donor B): 5545 cpm
3H-thymidine uptake ([1]; 1 μg/ml, Donor C/Donor D): 5601 cpm
suppressive activity in human allogenic MLR (in words) [1]: exhibited suppressive activity in human allogenic MLR in a concentration-dependent manner
inhibition at 10 pg/mL ([1]; Homo sapiens, Lymphocyte, 0.00001 μg/ml, Donor A/Donor B, read-out: Suppression): 0%
inhibition at 0.0001 µg/mL [1, 4]: 34.4%
inhibition at 0.0001 µg/mL [1, 5]: 22.1%
inhibition at 0.001 µg/mL [1, 6]: 58.5%
inhibition at 0.001 µg/mL [1, 7]: 65.8%
inhibition at 0.01 µg/mL [1, 8]: 61.4%
inhibition at 0.01 µg/mL [1, 9]: 72.3%
inhibition at 0.1 µg/mL [1, 10]: 64.8%
inhibition at 0.1 µg/mL [1, 11]: 78.3%
inhibition at 1 µg/mL [1, 12]: 56.9%
inhibition at 1 µg/mL [1, 13]: 73.7%
IL-3 activity ([2]; 0.001 μg/ml): 22.0 U/ml
IL-3 activity ([2]; 0.01 μg/ml): 13.2 U/ml
IL-3 activity ([2]; 0.1 μg/ml): 12.0 U/ml
IL-3 activity ([2]; 1 μg/ml): 9.5 U/ml
inhibition at 0.001 µg/mL ([2]; 0.001 μg/ml): 10.2%
inhibition at 0.01 µg/mL ([2]; 0.01 μg/ml): 10.2%
inhibition at 0.1 µg/mL ([2]; 0.1 μg/ml): 51%
inhibition at 1 µg/mL ([2]; 1 μg/ml): 62.2%
optical density (OD570) (CTLL-2 cells; 0.01 μg/ml, Table 6B): 0.915
optical density (OD570) (CTLL-2 cells; 0.1 μg/ml, Table 6B): 0.322
optical density (OD570) (CTLL-2 cells; 1 μg/ml, Table 6B): 0.239
inhibition at 0.01 µg/mL (CTLL-2 cells; Mus musculus, CTLL-2, 68 h, 0.01 μg/ml, Table 6B, read-out: Suppression): 4.9%
inhibition at 0.1 µg/mL (CTLL-2 cells; Mus musculus, CTLL-2, 68 h, 0.1 μg/ml, Table 6B, read-out: Suppression): 68.3%
inhibition at 1 µg/mL (CTLL-2 cells; Mus musculus, CTLL-2, 68 h, 1 μg/ml, Table 6B, read-out: Suppression): 77.2%
IL-2 activity ([3]; 0.001 μg/ml): 8.6 U/ml
IL-2 activity ([3]; 0.01 μg/ml): 4.6 U/ml
IL-2 activity ([3]; 0.1 μg/ml): 4.3 U/ml
IL-2 activity ([3]; 1 μg/ml): 2.7 U/ml
inhibition at 0.001 µg/mL ([3]; 0.001 μg/ml): 36.3%
inhibition at 0.01 µg/mL ([3]; 0.01 μg/ml): 65.9%
inhibition at 0.1 µg/mL ([3]; 0.1 μg/ml): 68.1%
inhibition at 1 µg/mL ([3]; 1 μg/ml): 80%
